For experiment [1], the target named is T1, Human 11b-HSD1 (Homo sapiens, UniProt P28845).
T1 construct: expressed in transfected cells
In words: Inhibition of cortisone-to-cortisol conversion in CHO-K1 cells over-expressing human 11b-HSD1 (HTRF cortisol assay). To be noted: CHO-K1 cells over-expressing human 11b-HSD1, 160 nM cortisone, 3 hours, 37° C. Format: cell-based. The source says: (§1) cDNA (human: Accession No. U12978.2; mouse: Accession No. NM_008288.2) coding the full-length amino acid sequence of 11β-HSD1 in a human and a mouse was incorporated into pMSCVpuro (from Clontech. Co. Ltd.), a vector of expressing a mammalian cell for the production of a retrovirus, and the resulting product was introduced into a GP2-293 cell (from Clontech Co. Ltd.), a retrovirus packing cell line together with pVSV-G vector (from Clontech Co. Ltd.) by using a Lipotamine plus reagent (from Invitrogen Co. Ltd.) in accordance with the method set forth in the appendix (by using HTRF cortisol assay kit from Cisbio assays Co., Ltd., catalog No. 62CO2PEB) and stabilized for 48 hours. Thereafter, viruses being obtained from those cells were used to infect CHO-K1 cell (from Korean Cell Line Bank, KCLB No. 10061) and in 24 hours, the cells were treated with 10 μg/ml pumycin (from Sigma Co. Ltd.) for two weeks to produce a stabilized cell system wherein each 11β-HSD1 in humans or in mice was over-expressed. When the cells being maintained, 5 μg/ml of puromycin was put into the medium and used (RPMI (Gibco), 37° C.). • Reference material: The EMBO Journal (2008) 27, 642-653
(§2) The obtained cells with 11b-HSD1 in a human and a mouse being over-expressed were sub-cultured in a 96-well plate with a cell number being 3×10^4 cells per well and stabilized for 24 hours [RPMI (Gibco), at 37° C., as being used in 5 days after thawing]. After a medium as diluted with DMSO including 160 nM of cortisone (from Sigma Co. Ltd.) and a test compound at a different concentration was put into each well in an amount of 200 ul, the well was cultured in a cell cultivator at 37° C. for 3 hours. 10 ul of the cultured solution was put into a 384 well plate and the amount of cortisol as generated was measured using a cortisol kit (from Cisbio international Co. Ltd, HTRF assay) in accordance with the method set forth in the appended manual.
(§3) As a control group, 160 nM of cortisone and 1% of DMSO were put into a corresponding well. The ground value was obtained from a well including only 160 nM of cortisone and 1% of DMSO without cells just like the control group. The calculation for a % inhibition level was made following the manual as appended. • Reference material: The Journal of Steroid Biochemistry and Molecular Biology, Volume 104, Issues 3-5, May 2007, Pages 123-129 • Bioorganic & Medicinal Chemistry Letters Volume 19, Issue 10, 15 May 2009, Pages 2674-2678
(§4) Like the analyzing method as stated above, the efficacy of inhibiting 11b-HSD1 was calculated as IC50 and the results are shown in Table 1: […]
In general terms: Time-resolved FRET reads energy transfer from a long-lived donor to a nearby acceptor.

Experiment [2] addresses T2, Mouse 11b-HSD1 (Mus musculus, UniProt P50172).
T2 construct: expressed in transfected cells
In words: Inhibition of cortisone-to-cortisol conversion in CHO-K1 cells over-expressing mouse 11b-HSD1 (HTRF cortisol assay). Format: cell-based. The following applies: CHO-K1 cells over-expressing mouse 11b-HSD1, 160 nM cortisone, 3 hours, 37° C.
Description: as §1, §2, §3, §4

In experiment [3] the target is T3, 11b-HSD1 (Mus musculus, UniProt P50172).
T3 construct: the tissues in abdominal fat and the liver were obtained; from tissue; host or cells: abdominal fat and liver of C57Bl/6 mice
In words: Ex vivo PD assay: 11b-HSD1 inhibition in abdominal fat and liver tissue after oral administration to mice. The following applies: mouse C57B1/6, oral, vs vehicle group; for inhibition at 10 mg/kg: 2 hr; for inhibition at 20 mg/kg: 6 hr. Here is the method:
The prepared compound was orally administered to a mouse (C57B1/6, orient 8 week old, about 25 g, male) and in a proper amount of time (2 hours, 6 hours, 12 hours, 16 hours, and 24 hours), the mouse was sacrificed and around 30 to 40 mg of the tissues in abdominal fat and the liver were obtained. To 500 ul of a medium (RPMI, gibco) including 1 μM of cortisone (from Sigma Co. Ltd.) and 400 μM of NADPH (from Sigma Co. Ltd) was added the tissue as obtained (30-40 mg), which then reacted in a cell cultivator at 37° C. for 3 hours. After 50 ul of the reacted solution was taken and diluted with DMEM medium at a volume ratio of 1/10, the amount of cortisol being generated was measured by using a cortisol kit (assay designs Co. Ltd., ELISA kit) in accordance with the method set forth in the appended manual. From the results being measured, the degree of the inhibition was obtained by the conversion in comparison with the vehicle group (vehicle: 5% DMSO+5% cremophor in dw, the amount being proportionate to the body weight, i.e., the administration was made at the same volume as the drug being introduced). • Reference material: Published Aug. 15, 2005//JEM vol. 202 no. 4 517-527 The Rockefeller University Press % inhibition={(the amount of cortisol of the vehicle group−the amount of the cortisol of the group with the compound being administered)/(the amount of cortisol of the vehicle group)}×100
According to the above analyzing method, the efficacy of inhibiting 11b-HSD1 of the test compound in the target organ was calculated as % inhibition values, which are shown in Table 2 and Table 3.

The mark [4] stands for this setting: abdominal fat, read-out: 11b-HSD1 % inhibition in the fat.
[5] abbreviates: liver, read-out: 11b-HSD1 % inhibition in the liver.

Like-named read-outs stand apart in the source and are kept apart here.

By IC50 is commonly meant the concentration that gives 50% inhibition. The low end stands for greater potency, the high end for weaker potency. The inhibition is the relative decrease from the control value, in per cent.

T3 sequence (P50172 whole entry): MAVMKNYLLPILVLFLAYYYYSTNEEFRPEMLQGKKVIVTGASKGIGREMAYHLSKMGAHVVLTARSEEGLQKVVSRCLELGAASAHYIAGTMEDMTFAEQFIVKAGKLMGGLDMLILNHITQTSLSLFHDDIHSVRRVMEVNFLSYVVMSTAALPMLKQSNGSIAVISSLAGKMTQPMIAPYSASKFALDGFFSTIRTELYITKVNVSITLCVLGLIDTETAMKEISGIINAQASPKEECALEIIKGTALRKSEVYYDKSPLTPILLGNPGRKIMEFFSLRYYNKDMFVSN
T2 sequence (P50172 whole entry): as above
T1 sequence (P28845 whole entry): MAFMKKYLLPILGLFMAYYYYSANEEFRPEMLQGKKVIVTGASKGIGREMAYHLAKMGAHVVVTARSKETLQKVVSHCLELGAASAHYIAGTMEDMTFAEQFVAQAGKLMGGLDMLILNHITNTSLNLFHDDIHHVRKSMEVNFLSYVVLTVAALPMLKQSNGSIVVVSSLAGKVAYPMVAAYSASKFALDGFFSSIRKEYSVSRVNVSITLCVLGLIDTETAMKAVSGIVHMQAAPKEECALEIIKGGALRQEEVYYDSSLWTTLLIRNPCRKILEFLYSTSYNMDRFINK

For `NC(=O)[C@]12CC3CC(C1)[C@@H](NC(=O)c1ccc(-c4ccccc4)o1)C(C3)C2` [Example 1, N-(5-carbamoyl-2-adamantyl)-5-phenylfuran-2-carboxamide], the IC50 in experiment [1] and in experiment [2] was < 100 nM throughout. In addition, the inhibition at 10 mg/kg turned out to be 91% in experiment [3] (setting [4]) and 85% in experiment [3] (setting [5]). The inhibition at 20 mg/kg in experiment [3] (setting [4]) stood at 83%; in experiment [3] (setting [5]) it was 70%.

In the case of `NC(=O)[C@]12CC3CC(C1)[C@@H](NC(=O)c1ccc(-c4ccc(Cl)cc4)o1)C(C3)C2` [Example 2, N-(5-carbamoyl-2-adamantyl)-5-(4-chlorophenyl)furan-2-carboxamide], the IC50 is < 100 nM in experiment [1] and 100 to 500 nM in experiment [2]. For the same compound, the inhibition at 10 mg/kg was 84% in experiment [3] (setting [4]) and 68% in experiment [3] (setting [5]). The values for the inhibition at 20 mg/kg in experiment [3] (setting [4]) and in experiment [3] (setting [5]) were 85% and 44%, respectively.

For the compound `NC(=O)[C@]12CC3CC(C1)[C@@H](NC(=O)c1ccc4ccccc4n1)C(C3)C2` [Example 18, N-(5-carbamoyl-2-adamantyl)quinoline-2-carboxamide], the IC50 in experiment [1] and in experiment [2] was < 100 nM in each case. For the same compound, the inhibition at 10 mg/kg turned out to be 58% in experiment [3] (setting [4]) and 62% in experiment [3] (setting [5]). For the same compound, the inhibition at 20 mg/kg in experiment [3] (setting [4]) is 65%; in experiment [3] (setting [5]), 61%.

Consider `NC(=O)[C@]12CC3CC(C1)[C@@H](NC(=O)c1cccc4cccnc14)C(C3)C2` [Example 19, N-(5-carbamoyl-2-adamantyl)quinoline-8-carboxamide], for which the IC50 in experiment [1] and in experiment [2] was < 100 nM throughout. The inhibition at 10 mg/kg in experiment [3] (setting [4]) was 51%; in experiment [3] (setting [5]) it was 50%.

As for `CCCOc1cccc(C(=O)N[C@H]2C3CC4CC2C[C@](C(N)=O)(C4)C3)n1` [Example 46, N-(5-carbamoyl-2-adamantyl)-6-propoxypyridine-2-carboxamide], the IC50 in experiment [1] and in experiment [2] was < 100 nM each time.

In the case of `NC(=O)[C@]12CC3CC(C1)[C@@H](NC(=O)c1cccc(OCc4ccccc4)n1)C(C3)C2` [Example 47, N-(5-carbamoyl-2-adamantyl)-6-phenylmethoxypyridine-2-carboxamide], the IC50 was < 100 nM in experiment [1] and 100 to 500 nM in experiment [2].

On to `CCCOc1cccc2ccc(C(=O)N[C@H]3C4CC5CC3C[C@](C(N)=O)(C5)C4)nc12` [Example 49, N-(5-carbamoyl-2-adamantyl)-8-propoxyquinoline-2-carboxamide], for which the IC50 was < 100 nM in experiment [1] and 100 to 500 nM in experiment [2].

For `COc1cccc2ccc(C(=O)N[C@H]3C4CC5CC3C[C@](C(N)=O)(C5)C4)nc12` [Example 50, N-(5-carbamoyl-2-adamantyl)-8-methoxyquinoline-2-carboxamide], the IC50 was < 100 nM in experiment [1] and 100 to 500 nM in experiment [2].

For `CCOc1cccc2ccc(C(=O)N[C@H]3C4CC5CC3C[C@](C(N)=O)(C5)C4)nc12` [Example 51, N-(5-carbamoyl-2-adamantyl)-8-ethoxyquinoline-2-carboxamide], the IC50 in experiment [1] and in experiment [2] was < 100 nM each time.

For `CC(C)Oc1cccc2ccc(C(=O)N[C@H]3C4CC5CC3C[C@](C(N)=O)(C5)C4)nc12` [Example 52, N-(5-carbamoyl-2-adamantyl)-8-propan-2-yloxyquinoline-2-carboxamide], the IC50 in experiment [1] is < 100 nM; in experiment [2], 100 to 500 nM.

Turning to `NC(=O)[C@]12CC3CC(C1)[C@@H](NC(=O)c1ccc4cccc(OCc5ccccc5)c4n1)C(C3)C2` [Example 53], the concentration for half-maximal inhibition (IC50) was < 100 nM in experiment [1] and > 500 nM in experiment [2].

`CC(C)COc1cccc2ccc(C(=O)N[C@H]3C4CC5CC3C[C@](C(N)=O)(C5)C4)nc12` [Example 54, N-(5-carbamoyl-2-adamantyl)-8-(2-methylpropoxy)quinoline-2-carboxamide]: the IC50 in experiment [1] was < 100 nM; in experiment [2], > 500 nM.

Turning to `CCC(C)Oc1cccc2ccc(C(=O)N[C@H]3C4CC5CC3C[C@](C(N)=O)(C5)C4)nc12` (some centres unmarked) [Example 56, 8-butan-2-yloxy-N-(5-carbamoyl-2-adamantyl)quinoline-2-carboxamide], the IC50 is < 100 nM in experiment [1] and 100 to 500 nM in experiment [2].

`CN(C)c1cccc(C(=O)N[C@H]2C3CC4CC2C[C@](C(N)=O)(C4)C3)n1` [Example 57, N-(5-carbamoyl-2-adamantyl)-6-(dimethylamino)pyridine-2-carboxamide]: the 50% inhibitory concentration (IC50) in experiment [1] and in experiment [2] was < 100 nM throughout.

For the compound `NC(=O)[C@]12CC3CC(C1)[C@@H](NC(=O)c1cccc(N4CCCCC4)n1)C(C3)C2` [Example 58, N-(5-carbamoyl-2-adamantyl)-6-piperidin-1-yl-pyridine-2-carboxamide], the IC50 in experiment [1] and in experiment [2] was < 100 nM throughout.

In the case of `CCN(CC)c1cccc(C(=O)N[C@H]2C3CC4CC2C[C@](C(N)=O)(C4)C3)n1` [Example 59, N-(5-carbamoyl-2-adamantyl)-6-(diethylamino)pyridine-2-carboxamide], the IC50 in experiment [1] and in experiment [2] was < 100 nM throughout.

On to `CCCNc1cccc(C(=O)N[C@H]2C3CC4CC2C[C@](C(N)=O)(C4)C3)n1` [Example 60, N-(5-carbamoyl-2-adamantyl)-6-(propylamino)pyridine-2-carboxamide], for which the IC50 in experiment [1] and in experiment [2] was < 100 nM throughout.

`NC(=O)[C@]12CC3CC(C1)[C@@H](NC(=O)c1cccc(N4CCc5ccccc5C4)n1)C(C3)C2` [Example 61, N-(5-carbamoyl-2-adamantyl)6-(3,4-dihydro-1H-isoquinolin-2-yl)pyridine-2-carboxamide]: the IC50 in experiment [1] and in experiment [2] was < 100 nM in each case.

Turning to `NC(=O)[C@]12CC3CC(C1)[C@@H](NC(=O)c1cccc(N4CCC(c5ccccc5)CC4)n1)C(C3)C2` [Example 62, N-(5-carbamoyl-2-adamantyl)-6-(4-phenylpiperidin-1-yl)pyridine-2-carboxamide], the IC50 in experiment [1] was < 100 nM; in experiment [2], 100 to 500 nM.

For `Cc1cccc(C(=O)N[C@H]2C3CC4CC2C[C@](C(N)=O)(C4)C3)[n+]1[O-]` [Example 63, N-(5-carbamoyl-2-adamantyl)-6-methyl-1-oxidopyridine-1-ium-2-carboxamide], the values for the concentration for half-maximal inhibition (IC50) in experiment [1] and in experiment [2] were 100 to 500 nM and > 500 nM, respectively.

For `CN(C)c1cccc(C(=O)N[C@H]2C3CC4CC2C[C@](C(N)=O)(C4)C3)[n+]1[O-]` [Example 65, N-(5-carbamoyl-2-adamantyl)-6-(dimethylamino)-1-oxidopyridin-1-ium-2-carboxamide], the results for the IC50 in experiment [1] and in experiment [2] were < 100 nM and 100 to 500 nM, respectively.

The values above are taken from patent US9233957B2, “5-carbamoyl-adamantan-2-yl amide derivatives, pharmaceutically acceptable salts thereof and preparation process thereof” (SK BIOPHARMACEUTICALS CO., LTD., priority 2011, dated 2016).
